{"source": "paper PMC3823643", "about": "(Nature structural & molecular biology, 2013)", "key": {"[1]": {"target": "T1, Danio rerio (zebrafish) DHFR (zDHFR) (Danio rerio, UniProt A0A8M1P929)", "T1 sequence (A0A8M1P929 1-190)": "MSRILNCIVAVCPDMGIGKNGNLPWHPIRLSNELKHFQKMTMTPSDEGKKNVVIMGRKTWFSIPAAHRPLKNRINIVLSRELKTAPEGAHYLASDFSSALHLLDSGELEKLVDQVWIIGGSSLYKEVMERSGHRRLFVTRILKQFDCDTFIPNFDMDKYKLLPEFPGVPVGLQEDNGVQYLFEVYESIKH", "experiment": "[…] HSQC NMR", "format": "binding"}, "[2]": {"target": "T2, human dihydrofolate reductase (hDHFR) (Homo sapiens, UniProt P00374)", "T2 sequence (P00374 1-187)": "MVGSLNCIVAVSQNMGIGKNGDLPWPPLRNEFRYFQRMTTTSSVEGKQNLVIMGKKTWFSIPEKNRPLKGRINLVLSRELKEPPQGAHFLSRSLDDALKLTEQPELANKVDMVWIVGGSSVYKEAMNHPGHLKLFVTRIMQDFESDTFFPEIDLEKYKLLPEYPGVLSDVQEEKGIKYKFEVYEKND", "experiment": "X-ray crystal structure", "format": "biochemical"}, "[3]": {"target": "E. coli dihydrofolate reductase (ecDHFR) (Escherichia coli, UniProt P0ABQ4)", "experiment": "product inhibition of initial rate, absorbance at […] nm", "format": "biochemical"}, "[4]": {"target": "E. coli dihydrofolate reductase (ecDHFR) N23PP S148A (Escherichia coli, UniProt P0ABQ4, INS23P/N23P/S148A)", "experiment": "product inhibition of initial rate, absorbance at […] nm", "format": "biochemical"}}, "data": [{"smiles": "Nc1nc(=O)c2nc(CNc3ccc(C(=O)N[C@@H](CCC(=O)O)C(=O)O)cc3)cnc2[nH]1", "note": "[FOL, folic acid]", "values": [{"measurement": "15N HSQC NMR", "setting": "[1]", "value": "Each panel shows a superposition of E– NADP^+–FOL (model Michaelis complex, black) and E–NADP^+– THF"}]}, {"smiles": "NC(=O)c1ccc[n+]([C@@H]2O[C@H](COP(=O)(O)OP(=O)(O)OC[C@H]3O[C@@H](n4cnc5c(N)ncnc54)[C@H](OP(=O)(O)O)[C@@H]3O)[C@@H](O)[C@H]2O)c1", "note": "[NADP+, NADP^+]", "values": [{"measurement": "IC50", "setting": "[2]", "value": "~620", "unit": "µM"}, {"measurement": "IC50", "setting": "[3]", "value": 6520, "unit": "µM"}, {"measurement": "IC50", "setting": "[4]", "value": 1270, "unit": "µM"}]}]}
